Like-named read-outs stand apart in the source and are kept apart here.
How the values were obtained:
uridine kinase [1] = conditions: cited from earlier work
uridine kinase [2] = conditions: cited from earlier work; remark: listed apart in the source
[3] = Characterization of recombinant His-tagged human uridine kinase expressed in E.coli; assay type: biochemical
Text: The novel human UDK gene has been cloned into an expression vector pET 16b (Novagen) with a His tag at its NH2-terminus. The gene was expressed in E.coli and has been purified to >95% purity by Ni-NTA affinity chromatography.

Row | Molecule | Km (uridine kinase [1]; normal rat liver) | Km (uridine kinase [1]; rapidly growing hepatoma 3924A) | Km (uridine kinase [2]; normal ovary) | Km (uridine kinase [2]; ovarian carcinoma) | Optimum pH [3] | Specific Activity ([3]; purified enzyme, His tag at NH2-terminus) | enzymatic activity ([3]; with the His tag)
1 | O=c1ccn([C@@H]2O[C@H](CO)[C@@H](O)[C@H]2O)c(=O)[nH]1 [uridine] | 5000 µM | 800 µM | 11500 µM | 500 µM |  |  | 
2 | Human Uridine Kinase: novel human UDK gene product expressed in E.coli from pET 16b, purified by Ni-NTA affinity chromatography (protein, His tag from pET16b; Human) MASAGGEDCESPAPEADRPHQRPFLIGVSGGTASGKSTVCEKIMELLGQNEVEQRQRKVVILSQDRFYKVLTAEQKAKALKGQYNFDHPDAFDNDLMHRTLKNIVEGKTVEVPTYDFVTHSRLPETTVVYPADVVLFEGILVFYSQEIRDMFHLRLFVDTDSDVRLSRRVLRDVRRGRDLEQILTQYTTFVKPAFEEFCLPTKKYADVIIPRGVDNMVAINLIVQHIQDILNGDICKWHRGGSNGRSYKRTFSEPGDHPG |  |  |  |  | 9.0 | 678 nmol/min/mg protein | good enzymatic activity

Reference: patent US6579708B1, “Human uridine kinase” (SmithKline Beecham Corporation, priority 2000, dated 2003)
